Measurements as given in US10906863B1, “Hydroxytyrosol 4-methoxycinnamic acid ester with antibacterial activity and a method of preparing the same” (SHAANXI UNIVERSITY OF SCIENCE AND TECHNOLOGY, priority 2020, dated 2021).
Values after ≈ are worked out from the molar mass of the structure shown.

Columns and labels:
Format in all cases: cell-based
[1] = system: carbapenem-resistant Acinetobacter baumannii CR-AB 18-183; assay: MIC by microbroth dilution, CR-AB 18-183; conditions: strain CR-AB 18-183, 37° C., 20-22 hours
Description: (§1) The minimal inhibitory concentration (MIC) of the compound as determined by a microbroth dilution method with gentamicin, cefazolin sodium and ceftriaxone sodium as positive control.
(§2) The experimental strains included methicillin-resistant Gram-positive bacteria: methicillin-resistant Staphylococcus aureus MRSA 18-222, 18-575; multiple drug-resistant […] bacteria: vancomycin-resistant enterococci VRE 18-80,18-94, multidrug-resistant Pseudomonas aeruginosa MDR-PA 18-1774,18-202, carbapenem-resistant Acinetobacter baumannii CR-AB 18-183,18-560. All the experimental strains were donated by Huashan Hospital affiliated to Fudan University (Institute of antibiotics, Fudan University) and used after routine identification.
(§3) Preparation of MHB medium: 20.0 g MHB medium was added to 1 L distilled water, boiled until completely dissolved, packed in conical bottles and sterilized at 121° C. for 15 min.
(§4) The experimental strain was cultured to the logarithmic growth phase: under aseptic condition, the experimental strain was inoculated into 100 mL MHB medium and incubated in a constant temperature and humidity incubator at 37° C. for 20-22 hours.
(§5) Preparation of storage solution: weigh the sample to be tested, dissolve it with 1% DMSO solution, prepare a storage solution with a concentration of 2560 μg/mL, weigh a positive reference substance, dissolve it with aseptic distilled water, and configure a storage solution with a concentration of 2560 μg/mL.
(§6) Under aseptic condition, the experimental strains cultured to logarithmic growth phase were adjusted to 0.5 MCF turbidity standard with MHB medium and […], and the bacterial suspension with concentration of 10^6 CFU/mL was prepared for standby.
(§7) Dilution of storage solution and inoculation of experimental strain: under aseptic condition, the storage solution was diluted to 256 μg/mL solution. Take a sterile 96-well plate, add 200 μL MHB medium to the 12th well, and add 100 μL MHB medium to each well. Add 100 μL of positive control solution to the first well, mix well, and suck 100 μL from it and discard. Add 100 μL of the compound sample solution to the second well, mix well, and then pipette 100 μL to the third well. After mixing, pipette 100 μL to the fourth well, and dilute to the 11th well in this way. Finally, 100 μL was pipetted from the 11th well and discarded. The 12th hole was the growth control without drugs. So far, the concentration of the positive reference substance is 128 μg/mL, the concentrations of the sample solution are 128, 64, 16, 8, 4, 2, 1, 0.5, 0.25 μg/mL respectively. Then, 10 μL of the prepared bacterial suspension is added to each well, so that the final concentration of the bacterial liquid in each well is 5×10^5 CFU/mL.
(§8) Incubation: Cover the 96-well plate inoculated with the experimental strains, and incubate in a constant temperature and humidity box at 37° C. for 20-22 hours.

[2] = system: multidrug-resistant Pseudomonas aeruginosa MDR-PA 18-202; assay: MIC by microbroth dilution, MDR-PA 18-202; conditions: strain MDR-PA 18-202, 37° C., 20-22 hours
Description: as §1, §2, §3, §4, §5, §6, §7, §8

[3] = system: carbapenem-resistant Acinetobacter baumannii CR-AB 18-560; assay: MIC by microbroth dilution, CR-AB 18-560; conditions: strain CR-AB 18-560, 37° C., 20-22 hours
Description: as §1, §2, §3, §4, §5, §6, §7, §8

[4] = system: vancomycin-resistant enterococci VRE 18-94; assay: MIC by microbroth dilution, VRE 18-94; conditions: strain VRE 18-94, 37° C., 20-22 hours
Description: as §1, §2, §3, §4, §5, §6, §7, §8

[5] = system: vancomycin-resistant enterococci VRE 18-80; assay: MIC by microbroth dilution, VRE 18-80; conditions: strain VRE 18-80, 37° C., 20-22 hours
Description: as §1, §2, §3, §4, §5, §6, §7, §8

[6] = system: multidrug-resistant Pseudomonas aeruginosa MDR-PA 18-174; assay: MIC by microbroth dilution, MDR-PA 18-174; conditions: for Minimum Bacteriostatic Concentration: strain MDR-PA 18-174, microbroth dilution, 37° C., 20-22 hours
Description: as §1, §2, §3, §4, §5, §6, §7, §8
(§9) In FIGS. 1-10, the twelve wells represent twelve groups, from left to right, positive, 128 μg/mL, 64 μg/mL, 32 μg/mL, 16 μg/mL, 8 μg/mL, 4 μg/mL, 2 μg/mL, 1 μg/mL, 0.25 μg/mL, 0.0625 μg/mL, Negative.

[7] = system: methicillin-resistant Staphylococcus aureus MRSA 18-575; assay: MIC by microbroth dilution, MRSA 18-575; conditions: strain MRSA 18-575, 37° C., 20-22 hours
Description: as §1, §2, §3, §4, §5, §6, §7, §8, §9

drug-resistant bacteria = assay: Antibacterial activity test, whole panel of drug-resistant strains; conditions: summary over the tested drug-resistant strains
Description: as §1, §2, §3, §4, §5, §6
Dilution of storage solution and inoculation of experimental strain: under aseptic condition, the storage solution was diluted to 256 μg/mL solution. Take a sterile 96-well plate, add 200 μL MHB medium to the 12th well, and add 100 μL MHB medium to each well. Add 100 μL of positive control solution to the first well, mix well, and suck 100 μL from it and discard. […]

[8] = system: methicillin-resistant Staphylococcus aureus MRSA 18-222; assay: MIC by microbroth dilution, MRSA 18-222; conditions: for Minimum Bacteriostatic Concentration: strain MRSA 18-222, microbroth dilution, 37° C., 20-22 hours
Description: as §1, §2, §3, §4, §5, §6, §7, §8, §9

Compound | Minimum Bacteriostatic Concentration [1] [µg/mL] | Minimum Bacteriostatic Concentration [2] [µg/mL] | Minimum Bacteriostatic Concentration [3] [µg/mL] | Minimum Bacteriostatic Concentration [4] [µg/mL] | Minimum Bacteriostatic Concentration [5] [µg/mL] | Minimum Bacteriostatic Concentration [6] [µg/mL] | Minimum Bacteriostatic Concentration [7] [µg/mL] | inhibitory effect on drug-resistant bacteria (result in words) (drug-resistant bacteria) | Minimum Bacteriostatic Concentration [8] [µg/mL] | MIC ([6]; Pseudomonas aeruginosa, MDR-PA, strain not named in the text (value matches 18-174)) [µg/mL] | MIC ([8]; Staphylococcus aureus, drug-resistant MRSA, strain not named in the text (value matches 18-222)) [µg/mL]
COc1ccc(C=CC(=O)O)cc1 [4-methoxycinnamic acid] | >128 | >128 | >128 | >128 | >128 | >128 | >128 | no inhibitory effect | >128 |  | 
COc1ccc(/C=C/C(=O)OCCc2ccc(O)c(O)c2)cc1 [(E)-3,4-dihydroxyphenethyl 3-(4-methoxyphenyl)acrylate] | >128 | >128 | >128 | >128 | >128 | 8 | 32 | excellent antibacterial activity | 4 | 8 (≈ 25.5 µM) | 4 (≈ 12.7 µM)
Cc1nnc(SCC2=C(C(=O)O)N3C(=O)[C@@H](NC(=O)Cn4cnnn4)[C@H]3SC2)s1 [Cefazolin sodium, cefazolin sodium] | >128 | 128 | >128 | >128 | 32 | 8 | >128 |  | >128 |  | 
CO/N=C(\C(=O)N[C@@H]1C(=O)N2C(C(=O)O)=C(CSc3nc(=O)c(=O)[nH]n3C)CS[C@H]12)c1csc(N)n1 [Ceftriaxone sodium, ceftriaxone sodium] | >128 | 16 | >128 | >128 | 8 | 128 | >128 |  | >128 |  | 
OCCc1ccc(O)c(O)c1 [Hydroxytyrosol] | >128 | >128 | >128 | >128 | >128 | >128 | >128 | no inhibitory effect | >128 |  | 
gentamicin | >128 | 0.0625 | >128 | >128 | 0.0625 | 0.0625 | 2 |  | 128 |  | 
